One assay has as its system KK-A^y mice. As to the kind of experiment: Liver triglyceride content in nonalcoholic simple fatty liver model (KK-A^y mice). The class given is in vivo. To be noted: for Effect on liver triglyceride content (in words): versus vehicle; for Liver triglyceride content: mean±standard error. The protocol:
KK-A^y mice (female, purchased from CLEA Japan, Inc.) were used. The mice were fed with CMF (for special breeding, purchased from Oriental Yeast Co., Ltd., Japan) ad libitum. At 14 weeks of age, they were measured for their body weight, blood glucose levels, plasma insulin levels, plasma triglyceride levels and plasma alanine aminotransferase (ALT), and then divided into two groups such that these items were equal between the groups (8 animals per group). The first group was administered with vehicle (0.5% methylcellulose) at a dose of 10 mL/kg, and the second group was administered with a choline salt of (1S)-1,5-anhydro-1-[5-(azulen-2-ylmethyl)-2-hydroxyphenyl]-D-glucitol (i.e., a choline salt of Compound A) at a dose of 3 mg/kg (calculated as Compound A), each being administered orally once a day for 2 weeks. On the day following the final administration, the liver was collected from each mouse under ether anesthesia, frozen in liquid nitrogen and then stored at −80° C.
Liver triglyceride content was measured in the following manner.
1. A portion (50 to 150 mg) of each liver frozen and stored at −80° C. was taken to an Assist tube. 2. After addition of methanol (2 mL), the liver sample was homogenized with a POLYTRON (KINEMATICA). 3. To the homogenate, chloroform (4 mL) was added and vigorously stirred at room temperature for 10 minutes. 4. Milli-Q water (1 mL) was further added and vigorously stirred. 5. The sample was centrifuged in a low speed centrifuge (Hitachi, Ltd., Japan) (2,500 rpm, 5 min, room temperature). 6. A portion of the lower layer (total volume: 4.5 mL) was taken to an Eppendorf tube and evaporated in a centrifugal evaporator (Sakuma Seisakusho, Japan) to remove the solvent. 7. The residue in the Eppendorf tube was dissolved again by addition of ethanol (10 μL). 8. Triglyceride E-Test Wako reagent (1 mL, Wako Pure Chemical Industries, Ltd., Japan) was added to the resulting solution, and triglycerides were quantified. 9. From the result obtained above, the triglyceride content per g of liver was calculated for each sample. The data were expressed as mean±standard error.
(§1) The test was conducted in the same manner as shown in Example 1, except that this test was conducted with 3 groups of 8 animals, and the first group was administered with vehicle (0.5% methylcellulose) at a dose of 10 mL/kg, the second group was administered with a co-crystal (1:1 molar ratio) of (1S)-1,5-anhydro-1-[3-(1-benzothiophen-2-ylmethyl)-4-fluorophenyl]-D-glucitol (Compound B) and L-proline at a dose of 3 mg/kg (calculated as Compound B), and the third group was administered with a control compound, 2-(4-methoxybenzyl)phenyl 6-O-ethoxycarbonyl-β-D-glucopyranoside (hereinafter also referred to as Compound X, whose structural formula is shown below) disclosed in Patent Document 1 (supra) at a dose of 36 mg/kg, each being administered orally once a day for 2 weeks. Then, the liver triglyceride content was measured for each group in the same manner as shown in Example 1.
as §1, with “Compound B” for “(1S)-1,5-anhydro-1-[3-(1-benzothiophen-2-ylmethyl)-4-fluorophenyl]-D-glucitol (Compound B)”, “T-1095 disclosed in Patent Document 2 (supra), i.e., 3-(benzo[b]furan-5-yl)-2′,6′-dihydroxy-4′-methylpropiophenone 2′-O-(6-O-methoxycarbonyl)-β-D-glucopyranoside” for “2-(4-methoxybenzyl)phenyl 6-O-ethoxycarbonyl-β-D-glucopyranoside”, “Y,” for “X,”, “below)” for “below) disclosed in Patent Document 1 (supra)”, “34” for “36”
The test was conducted in the same manner as shown in Example 1. […]

The next assay has as its system SGLT. To be noted: disclosed in Patent Documents 3, 5 and 6; cited from earlier work.
Assay [1] deals with CDAA diet-fed Wistar rats. Description: Nonalcoholic steatohepatitis model, CDAA diet-fed rats: hepatic fibrosis score. It is filed as in vivo. To be noted: Example 5, FIG. 3; co-crystal of Compound B and L-proline 3 mg/kg orally once a day for 5 weeks; five-point scale 0-4; versus CDAA diet vehicle group. The protocol: This test was conducted by reference to a document (Biochem Biophys Res Commun., 2004, 315(1), 187-195). Wistar rats (male, purchased from Charles River Japan, Inc.) were used. The rats were fed with CDAA diet (choline-deficient L-amino acid-defined diet (Choline Deficient and Iron Supplemented L-Amino Acid Defined Rat Diet, Dyets)) or normal control diet (Choline and Iron Supplemented L-Amino Acid Defined Rat Diet, Dyets) ad libitum. At 9 weeks of age, they were measured for their body weight and divided into groups of equal body weight, followed by initiation of the test (10 animals per group). […] The second and third groups were fed with CDAA diet, and the second group was administered with vehicle (0.5% methylcellulose) at a dose of 5 mL/kg, while the third group was administered with a co-crystal (1:1 molar ratio) of Compound B and L-proline at a dose of 3 mg/kg (calculated as Compound B). […] After a portion of the liver was fixed in 10% neutral buffered formalin, paraffin sections (3 μm) were prepared in a standard manner and subjected to van Gieson staining Fibrosis was evaluated by reference to the Brunt classification (Clinical Practice Guidelines for NASH/NAFLD, edited by the Japan Society of Hepatology, 2006), based on a five-point scale of 0, 1, 2, 3 and 4 (see Table 4).

Another assay relates to MCD diet-fed Wistar rats. As to the kind of experiment: Nonalcoholic steatohepatitis model, MCD diet-fed rats: liver histopathology scores. It is filed as in vivo. To be noted: co-crystal of Compound B and L-proline 3 mg/kg orally once a day for 16 weeks, five-point scale 0-4, versus MCD diet vehicle group. The protocol:
This test was conducted by reference to a document (J. Hepatol., 2003, 39, 756-764). Wistar rats (male, purchased from Charles River Japan, Inc.) were used. The rats were fed with MCD diet (methionine/choline-deficient diet, MP Biochemicals) or normal control diet (methionine/choline control diet, MP Biochemicals) ad libitum. At 9 weeks of age, they were measured for their body weight and divided into groups of equal body weight, followed by initiation of the test (10 animals per group). The first group was fed with normal control diet and administered with vehicle (0.5% methylcellulose) at a dose of 5 mL/kg. The second and third groups were fed with MCD diet, and the second group was administered with vehicle (0.5% methylcellulose) at a dose of 5 mL/kg, while the third group was administered with a co-crystal (1:1 molar ratio) of Compound B and L-proline at a dose of 3 mg/kg (calculated as Compound B). Each drug was administered orally once a day for 16 weeks. On the day following the final administration, the liver was collected from each rat under ether anesthesia and a portion of the liver was fixed in 10% neutral buffered formalin. […]

The test system of the next assay is db/db mice. To be noted: disclosed in Patent Document 2; cited from earlier work.

The values that follow come from patent publication US20110003757A1, “PHARMACEUTICAL COMPOSITIONS FOR TREATING FATTY LIVER DISEASE” (ASTELLAS PHARMA INC., priority 2008, published 2011).

The structures appear in SMILES notation.

As for `OC[C@H]1O[C@@H](c2cc(Cc3cc4cccccc-4c3)ccc2O)[C@H](O)[C@@H](O)[C@@H]1O` [Compound A, (1S)-1,5-anhydro-1-[5-(azulen-2-ylmethyl)-2-hydroxyphenyl]-D-glucitol], the “Effect on liver triglyceride content (in words)” value (from here on “Effect”) in the assay on KK-A^y mice (Example 1, 3 mg/kg orally once a day for 2 weeks) is “significantly improved”. In the assay on KK-A^y mice (Example 1, choline salt of Compound A, 3 mg/kg (calculated as Compound A) orally once a day for 2 weeks, vehicle 60.0 ± 8.4), the Liver triglyceride content was 30.7 ± 5.4 mg/g liver. The SGLT inhibitory activity entry in the assay with SGLT is listed as “shows SGLT inhibitory activity”.
With `OC[C@H]1O[C@@H](c2ccc(F)c(Cc3cc4ccccc4s3)c2)[C@H](O)[C@@H](O)[C@@H]1O` [Compound B, (1S)-1,5-anhydro-1-[3-(1-benzothiophen-2-ylmethyl)-4-fluorophenyl]-D-glucitol], the “Pathological score of hepatic fibrosis” value in assay [1] is recorded as “significantly improved”; in the assay on MCD diet-fed Wistar rats (Example 4, FIG. 2), “significantly improved”. Further, the “Pathological score of inflammatory cell infiltration” value in the assay on MCD diet-fed Wistar rats (Example 4, FIG. 1) is on record as “significantly improved”. Further, the “Effect” value in the assay with KK-A^y mice (Example 2, 3 mg/kg orally once a day for 2 weeks) is “significantly improved”; in the assay on KK-A^y mice (Example 3, 3 mg/kg orally once a day for 2 weeks), “significantly improved”. The Liver triglyceride content in the assay on KK-A^y mice (Example 2, co-crystal of Compound B and L-proline, 3 mg/kg (calculated as Compound B) orally once a day for 2 weeks, vehicle 52.8 ± 4.9) is reported as 34.8 ± 1.9 mg/g liver; in the assay on KK-A^y mice (Example 3, co-crystal of Compound B and L-proline, 3 mg/kg (calculated as Compound B) orally once a day for 2 weeks, vehicle 59.7 ± 6.2), 41.2 ± 5.1 mg/g liver. The SGLT inhibitory activity result in the assay on SGLT is recorded as “shows SGLT inhibitory activity”.
Consider `CCOc1ccc(Cc2cc([C@@H]3O[C@H](CO)[C@@H](O)[C@H](O)[C@H]3O)ccc2Cl)cc1` [Compound C, (1S)-1,5-anhydro-1-[4-chloro-3-(4-ethoxybenzyl)phenyl]-D-glucitol], for which the “Effect” value with KK-A^y mice (Example 6, 3 mg/kg orally once a day for 2 weeks) is recorded as “significantly improved”. The Liver triglyceride content in the assay with KK-A^y mice (Example 6, 3 mg/kg orally once a day for 2 weeks, vehicle 60.2 ± 7.1) is reported as 28.6 ± 3.9 mg/g liver.
On to `CCOC(=O)OC[C@H]1O[C@@H](Oc2ccccc2Cc2ccc(OC)cc2)[C@H](O)[C@@H](O)[C@@H]1O` [Compound X, 2-(4-methoxybenzyl)phenyl 6-O-ethoxycarbonyl-β-D-glucopyranoside, reference compound], for which the Liver triglyceride content in the assay with KK-A^y mice (Example 2, 3 mg/kg orally once a day for 2 weeks, vehicle 52.8 ± 4.9) is given as 57.9 ± 4.5 mg/g liver. In addition, the “Effect” value in the assay with KK-A^y mice (Example 2, 36 mg/kg orally once a day for 2 weeks) is “no significant effect”; in the assay with KK-A^y mice (Example 3, 34 mg/kg orally once a day for 2 weeks), “no significant effect”.
Regarding `COC(=O)OC[C@H]1O[C@@H](Oc2cc(C)cc(O)c2C(=O)CCc2ccc3occc3c2)[C@H](O)[C@@H](O)[C@@H]1O` [Compound Y, 3-(benzo[b]furan-5-yl)-2′,6′-dihydroxy-4′-methylpropiophenone 2′-O-(6-O-methoxycarbonyl)-β-D-glucopyranoside, reference compound], the Blood triglyceride levels entry with db/db mice is “reduced blood triglyceride levels”. This molecule showed a Liver triglyceride content in the assay on KK-A^y mice (Example 3, 34 mg/kg orally once a day for 2 weeks, vehicle 59.7 ± 6.2) of 59.7 ± 8.9 mg/g liver.
